Values joined by “and” are separate entries in the source; they are usually repeats but may differ in a detail not shown here. Identical values can stand only once.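 These data come from cells grown in 96-well plates and exposed to compound for 48 hours at five concentrations. GI50 is the concentration that inhibits growth by half. TGI denotes the concentration required for complete inhibition of growth.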
Tests used:
Assay in all cases: DTP human tumour cell line panel, 48 h
SN12C renal = tested on: SN12C renal
IGROV1 ovarian = tested on: IGROV1 ovarian
COLO 205 colon = tested on: COLO 205 colon
LOX IMVI melanoma = tested on: LOX IMVI melanoma
HS 578T breast = tested on: HS 578T breast
RPMI-8226 leukemia = tested on: RPMI-8226 leukemia
HOP-92 NSCLC = tested on: HOP-92 NSCLC
HCT-15 colon = tested on: HCT-15 colon
TK-10 renal = tested on: TK-10 renal
SNB-75 CNS = tested on: SNB-75 CNS

| Compound | TGI (SN12C renal) | TGI (IGROV1 ovarian) | TGI (COLO 205 colon) [µM] | TGI (LOX IMVI melanoma) [µM] | TGI (HS 578T breast) [µM] | TGI (RPMI-8226 leukemia) | TGI (HOP-92 NSCLC) | TGI (HCT-15 colon) | TGI (TK-10 renal) | TGI (SNB-75 CNS) | GI50 (RPMI-8226 leukemia) | GI50 (SNB-75 CNS) [µM] | GI50 (SN12C renal) [µM] | GI50 (IGROV1 ovarian) | GI50 (COLO 205 colon) | GI50 (LOX IMVI melanoma) [µM] | GI50 (HS 578T breast) [µM] | GI50 (HOP-92 NSCLC) [µM] | GI50 (HCT-15 colon) [µM] | GI50 (TK-10 renal) [µM] |
| --- | --- | --- | --- | --- | --- | --- | --- | --- | --- | --- | --- | --- | --- | --- | --- | --- | --- | --- | --- | --- |
| Cc1nc(-c2cc3cc(Cl)ccc3oc2=O)cc2c1c(=O)oc1ccc(Cl)cc12 | > 100 µM | > 100 µM | > 100 | > 100 | > 100 | > 100 µM | > 100 µM | > 100 µM | > 100 µM |  |  |  |  |  |  |  |  |  |  |  |
| c1ccc(-c2nnn(CCN3CCCCC3)n2)cc1 | > 100 µM | > 100 µM | > 100 | > 100 | > 100 | > 100 µM | > 100 µM | > 100 µM | > 100 µM | > 100 µM |  |  |  |  |  |  |  |  |  |  |
| CCN(CC)c1ccc2cc(-c3nc4ccccc4c(=O)[nH]3)c(=N)oc2c1 | > 100 µM | > 100 µM | > 100 | > 100 | > 100 | > 100 µM | > 100 µM | > 100 µM | > 100 µM | > 100 µM |  |  |  |  |  |  |  |  |  |  |
| NCCOCC(N)C(=O)O (stereo not drawn) | > 100 µM | > 100 µM | > 100 | > 100 | > 100 | > 100 µM | > 100 µM | > 100 µM | > 100 µM | > 100 µM | 39.1 µM and > 100 µM |  |  |  |  |  |  |  |  |  |
| CS(=O)(=O)NC12CCC(c3ccccc31)c1ccccc12 | > 100 µM | > 100 µM | > 100 | > 100 | > 100 | > 100 µM | > 100 µM | > 100 µM | > 100 µM | > 100 µM |  |  |  |  |  |  |  |  |  |  |
| Cc1ccccc1OC(C)C(=O)NN1C(=O)CC(=O)N(c2ccccc2)C1=S (stereo not drawn) | > 100 µM | > 100 µM | > 100 | > 100 | > 100 | > 100 µM | > 100 µM | > 100 µM | > 100 µM | > 100 µM |  |  |  |  |  |  |  |  |  |  |
| CCOC(=O)c1cnccc1CC1(C#N)c2ccccc2C=CN1C(=O)c1ccccc1 (stereo not drawn) | 97.3 µM | 39.9 µM | > 100 | 72.9 | 46.4 | 27.6 µM | > 100 µM | > 100 µM | > 100 µM | 52.9 µM |  |  |  |  |  |  |  |  |  |  |
| NC(=O)Cc1nc2c(=O)[nH]cnc2n1C1OC(CO)C(O)C1O (stereo not drawn) | > 100 µM | > 100 µM | > 100 | > 100 | > 100 | > 100 µM | > 100 µM | > 100 µM | > 100 µM | > 100 µM |  |  |  |  |  |  |  |  |  |  |
| COC(=O)[C@@H]1CN(C(=O)c2ccccc2)C(=O)N1C(=O)OCc1ccccc1 | > 100 µM | > 100 µM | > 100 | > 100 | > 100 | > 100 µM | > 100 µM | > 100 µM | > 100 µM | > 100 µM |  |  |  |  |  |  |  |  |  |  |
| CSc1nc(NC(C)C)c2c(n1)Sc1nc3ccccc3n1C2O (stereo not drawn) | > 100 µM | > 100 µM | 14.3 | > 100 | 13.4 | 12.5 µM | > 100 µM | > 100 µM | > 100 µM | 23.4 µM |  |  |  |  |  |  |  |  |  |  |
| NC1=NCC(CN2CCCC2)O1 (stereo not drawn) | > 100 µM | > 100 µM | > 100 | > 100 | > 100 | > 100 µM | > 100 µM | > 100 µM | > 100 µM | > 100 µM |  |  |  |  |  |  |  |  |  |  |
| CC(C)C1(O)C(=O)N(c2c(F)c(F)c(F)c(F)c2F)C(=S)N1CCSc1ccccc1 (stereo not drawn) | 29.3 µM | 31.2 µM | 32.9 | 30.1 | 39.7 | 28.7 µM | 22.2 µM | 33 µM | 27.9 µM | 31.1 µM |  |  |  |  |  |  |  |  |  |  |
| CCC(CC(C)C)Nc1ccc(NC(CC)CC(C)C)cc1 (stereo not drawn) | 32.2 µM | 78.7 µM | 23 | 35.1 | > 100 | 18.5 µM | 24.7 µM | 27.9 µM | 32.3 µM | 38.2 µM | 3.85 µM | 15.4 | 16 | 27.1 µM | 11 µM | 14.9 | 25 | 10.7 | 14.8 | 17.7 |
| Cc1cc2c(c(=O)n1C)SCC2 | > 100 µM | > 100 µM | > 100 | > 100 | > 100 | > 100 µM | > 100 µM | > 100 µM | > 100 µM | > 100 µM |  |  |  |  |  |  |  |  |  |  |
| Cc1nc2ccc(Cl)cc2c2c1CCN2c1ccccc1 | 17.2 µM | > 100 µM | 18.1 | 22.3 | 55.7 | 31.4 µM | 24.1 µM | 95.3 µM | 37.7 µM | > 100 µM |  |  |  |  |  |  |  |  |  |  |
| Nc1ncnc2c1ncn2Cc1cccc(CCl)c1 | 29.3 µM | 31.8 µM |  | 71.7 | > 100 | 44.5 µM | 65.5 µM | 41.7 µM | 34.4 µM | > 100 µM |  |  |  |  |  |  |  |  |  |  |
| CSc1ccc(/C=C2\N=C(c3ccccc3)N(/N=C/c3cc4cc(C)ccc4nc3Cl)C2=O)cc1 | 35.6 µM | 35 µM | 39.4 | 44.6 | 65.9 | > 100 µM | 40.1 µM | 96.5 µM | 33.5 µM | 49.2 µM |  |  |  |  |  |  |  |  |  |  |
| O=C1C=CC(=O)c2c(O)c(N3CCN(CCOCCO)CC3)c(Cl)c(O)c21 | 2.07 µM [middle of 4 runs] | 3.2 µM [middle of 4 runs] |  |  |  | 1.01 µM [middle of 4 runs] | 0.45 µM and 0.493 µM and 1.12 µM | 817 nM [middle of 4 runs] | 1.56 µM [middle of 4 runs] | 3.16 µM [middle of 4 runs] | 277 nM [middle of 4 runs] |  |  | 1.64 µM [middle of 4 runs] | 156 nM [middle of 4 runs] |  | 0.218 |  |  |  |
| O=C1c2ccccc2C(=O)N1c1nc(-c2ccc(Cl)cc2)cc(N2N=C(c3ccc(Br)cc3)CC2c2ccccc2)n1 (stereo not drawn) | 17.1 µM | > 32.6 µM | 4.84 | 3.78 | 20.8 | 11.7 µM | 82.3 µM | 7.14 µM | > 49 µM |  |  |  |  |  |  |  |  |  |  |  |
| C/C(=N\Nc1nc2ccccc2[nH]1)c1cc2ccccc2cn1 | 1.06 µM | 1.13 µM |  | 1.48 | 1.74 | 0.599 µM | 0.819 µM | 2.51 µM | 5.16 µM | 1.56 µM |  |  |  |  |  |  |  |  |  |  |
